In ChEMBL document CHEMBL4359925, “Rational discovery of a highly novel and selective mTOR inhibitor” (Bioorg Med Chem Lett, 2019):
Active and inactive are the calls of the source. The calls are words filed in the database; no cut-off is given here.

How the values were obtained:
[1] = Cmax in rat at 3 mg/kg, po; type: ADME, organism-based; parameters: dose 3 mg/kg, route oral; settings: in vivo
[2] = Tmax in rat at 3 mg/kg, po; type: ADME, organism-based; settings: in vivo
[3] = Half-life in rat at 3 mg/kg, po; type: ADME, organism-based; settings: in vivo
[4] = Cmax in mouse at 10.4 mg/kg, iv; type: ADME, organism-based; parameters: dose 10.4 mg/kg, route intravenous; settings: in vivo
[5] = Clearance in mouse at 10.4 mg/kg, iv; type: ADME, organism-based; settings: in vivo
[6] = Half-life in mouse at 10.4 mg/kg, iv; type: ADME, organism-based; settings: in vivo
[7] = Cmax in rat at 100 mg/kg, po; type: ADME, organism-based; parameters: dose 100 mg/kg, route oral; settings: in vivo
[8] = Half-life in dog at 10 mg/kg, po; type: ADME, organism-based, Canis lupus familiaris; settings: in vivo
[9] = Tmax in dog at 10 mg/kg, po; type: ADME, organism-based, Canis lupus familiaris; settings: in vivo
[10] = Cmax in dog at 10 mg/kg, po; type: ADME, organism-based, Canis lupus familiaris; parameters: dose 10 mg/kg, route oral; settings: in vivo
[11] = Half-life in rat at 4.1 mg/kg, po; type: ADME, organism-based; settings: in vivo
[12] = Tmax in rat at 4.1 mg/kg, po; type: ADME, organism-based; settings: in vivo
[13] = Cmax in rat at 4.1 mg/kg, po; type: ADME, organism-based; parameters: dose 4.1 mg/kg, route oral; settings: in vivo
[14] = Volume of distribution at steady state in mouse at 10.4 mg/kg, iv; type: ADME, organism-based; settings: in vivo, read-out: Vdss
[15] = Tmax in rat at 100 mg/kg, po; type: ADME, organism-based; settings: in vivo
[16] = Half-life in rat at 100 mg/kg, po; type: ADME, organism-based; settings: in vivo
[17] = Cmax in mouse at 26 mg/kg, po; type: ADME, organism-based; parameters: dose 26 mg/kg, route oral; settings: in vivo
[18] = Tmax in mouse at 26 mg/kg, po; type: ADME, organism-based; settings: in vivo
[19] = Half-life in mouse at 26 mg/kg, po; type: ADME, organism-based; settings: in vivo
[20] = Cmax in dog at 0.2 mg/kg, iv; type: ADME, organism-based, Canis lupus familiaris; parameters: dose 0.2 mg/kg, route intravenous; settings: in vivo
[21] = Clearance in dog at 0.2 mg/kg, iv; type: ADME, organism-based, Canis lupus familiaris; settings: in vivo
[22] = Half-life in dog at 0.2 mg/kg, iv; type: ADME, organism-based, Canis lupus familiaris; settings: in vivo
[23] = Volume of distribution at steady state in dog at 0.2 mg/kg, iv; type: ADME, organism-based, Canis lupus familiaris; settings: in vivo, read-out: Vdss
[24] = Cmax in rat at 93 mg/kg, po; type: ADME, organism-based; parameters: dose 93 mg/kg, route oral; settings: in vivo
[25] = Tmax in rat at 93 mg/kg, po; type: ADME, organism-based; settings: in vivo
[26] = Half-life in rat at 93 mg/kg, po; type: ADME, organism-based; settings: in vivo
[27] = Cmax in rat at 0.8 mg/kg, iv; type: ADME, organism-based; parameters: dose 0.8 mg/kg, route intravenous; settings: in vivo
[28] = Clearance in rat at 0.8 mg/kg, iv; type: ADME, organism-based; settings: in vivo
[29] = Half-life in rat at 0.8 mg/kg, iv; type: ADME, organism-based; settings: in vivo
[30] = Volume of distribution at steady state in rat at 0.8 mg/kg, iv; type: ADME, organism-based; settings: in vivo, read-out: Vdss
[31] = Cmax in dog at 30 mg/kg, po; type: ADME, organism-based, Canis lupus familiaris; parameters: dose 30 mg/kg, route oral; settings: in vivo
[32] = Tmax in dog at 30 mg/kg, po; type: ADME, organism-based, Canis lupus familiaris; settings: in vivo
[33] = Half-life in dog at 30 mg/kg, po; type: ADME, organism-based, Canis lupus familiaris; settings: in vivo
[34] = Cmax in mouse at 2.8 mg/kg, iv; type: ADME, organism-based; parameters: dose 2.8 mg/kg, route intravenous; settings: in vivo
[35] = Clearance in mouse at 2.8 mg/kg, iv; type: ADME, organism-based; settings: in vivo
[36] = Half-life in mouse at 2.8 mg/kg, iv; type: ADME, organism-based; settings: in vivo
A549 [37] = assay: Synergistic antiproliferative activity against human A549 cells harboring KRAS G12S mutant in presence of erlotinib; type: functional, cell-based
A549 [38] = assay: Synergistic antiproliferative activity against human A549 cells harboring KRAS G12S mutant in presence of gemcitabine; type: functional, cell-based
NCI-H1395 [39] = assay: Additive antiproliferative activity against human NCI-H1395 cells harboring BRAF G469A in presence of erlotinib; type: functional, cell-based
NCI-H1395 [40] = assay: Additive antiproliferative activity against human NCI-H1395 cells harboring BRAF G469A in presence of gemcitabine; type: functional, cell-based
NCI-H1650 = assay: Antiproliferative activity against human NCI-H1650 cells; type: functional, cell-based
NCI-H460 [41] = assay: Antiproliferative activity against human H460 cells; type: functional, cell-based
DU-145 = assay: Antiproliferative activity against human DU145 cells; type: functional, cell-based
NCI-H1395 [42] = assay: Antiproliferative activity against human NCI-H1395 cells; type: functional, cell-based
MIA PaCa-2 = assay: Antiproliferative activity against human MIAPaCa2 cells; type: functional, cell-based
BXPC-3 = assay: Antiproliferative activity against human BxPC3 cells; type: functional, cell-based
NCI-H460 [43] = assay: Synergistic antiproliferative activity against human H460 cells harboring KRAS […] mutant in presence of erlotinib
NCI-H460 [44] = assay: Synergistic antiproliferative activity against human H460 cells harboring KRAS […] mutant in presence of gemcitabine

## CC(F)(F)CN1C(=O)[C@]2(C)COCCN2c2nc(-c3ccc(NC(=O)NC4CC4)cc3)ncc21
[1]
  Cmax: 176 ng/mL
[2]
  Tmax: 6.7 h
[3]
  half-life: 10.3 h
[4]
  Cmax: 17700 ng/mL
[5]
  clearance: 4 mL/min/kg
[6]
  half-life: 2 h
[7]
  Cmax: 3670 to 6410 ng/mL
[8]
  half-life: 9.9 h
[9]
  Tmax: 10.7 h
[10]
  Cmax: 549 ng/mL
[11]
  half-life: 15.2 h
[12]
  Tmax: 4 h
[13]
  Cmax: 150 ng/mL
[14]
  Vd: 1.16 L/kg
[15]
  Tmax: 4.7 to 14.7 h
[16]
  half-life: 14.7 to 15 h
[17]
  Cmax: 11100 ng/mL
[18]
  Tmax: 6 h
[19]
  half-life: 9.2 h
[20]
  Cmax: 278 ng/mL
[21]
  clearance: 3.3 mL/min/kg
[22]
  half-life: 7.5 h
[23]
  Vd: 1.12 L/kg
[24]
  Cmax: 7220 ng/mL
[25]
  Tmax: 8.7 h
[26]
  half-life: 23.4 h
[27]
  Cmax: 873 ng/mL
[28]
  clearance: 6.9 mL/min/kg
[29]
  half-life: 1.8 h
[30]
  Vd: 0.951 L/kg
[31]
  Cmax: 726 ng/mL
[32]
  Tmax: 7.3 h
[33]
  half-life: 9.2 h
[34]
  Cmax: 6860 ng/mL
[35]
  clearance: 8.5 mL/min/kg
[36]
  half-life: 2.7 h
A549 [37]
  Activity: Active
A549 [38]
  Activity: Active
NCI-H1395 [39]
  Activity: Active
NCI-H1395 [40]
  Activity: Active
NCI-H1650
  Activity: Active
NCI-H460 [41]
  Activity: Active
DU-145
  Activity: Active
NCI-H1395 [42]
  Activity: Active
MIA PaCa-2
  Activity: Active
BXPC-3
  Activity: Active
NCI-H460 [43]
  Activity: Active
NCI-H460 [44]
  Activity: Active
